{
  "source": "patent US7192906B2",
  "about": "“Substituted pyrazole derivatives, production process thereof, and herbicide compositions containing the derivatives” (SDS Biotech K.K., priority 2001, dated 2007)",
  "data": [
    {"tested_on": "Ammannia multiflora", "test": "Test Example 3 paddy field treatment", "type": "in vivo", "conditions": "paddy field treatment, wettable powder, active ingredient 1 kg per hectare, 21st day after the dropping, index 0-5", "procedure,_shortened": "(§1)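 Weed seeds sown in puddled paddy soil under 4 cm water, with two-leaf Koshihikari rice transplanted; 10 days later a wettable powder was applied to the water surface at 1 kg active ingredient/ha. Scored 21 days after application on a 0–5 scale (0 = <10%, 5 = ≥90% herbicidal effect or phytotoxicity).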", "values": [
      {"smiles": "CNC(=O)C(Cn1cc(C)c(-c2cccc(F)c2)n1)=NOC", "note": "[Compound 43]", "Herbicidal activity AM": "5 (herbicidal effect of not less than 90%, or phytotoxicity of 90% or more)"},
      {"smiles": "CNC(=O)C(Cn1cc(C)c(-c2ccc(F)cc2)n1)=NOC", "note": "[Compound 44]", "Herbicidal activity AM": "5 (herbicidal effect of not less than 90%, or phytotoxicity of 90% or more)"}
    ]},
    {"tested_on": "Scirpus juncoides", "test": "Test Example 3 paddy field treatment", "type": "in vivo", "conditions": "paddy field treatment, wettable powder, active ingredient 1 kg per hectare, 21st day after the dropping, index 0-5", "procedure,_shortened": "as §1", "values": [
      {"smiles": "CNC(=O)C(Cn1cc(C)c(-c2cccc(F)c2)n1)=NOC", "note": "[Compound 43]", "Herbicidal activity SJ": "5 (herbicidal effect of not less than 90%, or phytotoxicity of 90% or more)"},
      {"smiles": "CNC(=O)C(Cn1cc(C)c(-c2ccc(F)cc2)n1)=NOC", "note": "[Compound 44]", "Herbicidal activity SJ": "5 (herbicidal effect of not less than 90%, or phytotoxicity of 90% or more)"}
    ]},
    {"tested_on": "Echinochloa crusgalli", "test": "Test Example 3 paddy field treatment", "type": "in vivo", "conditions": "paddy field treatment, wettable powder, active ingredient 1 kg per hectare, 21st day after the dropping, index 0-5", "procedure,_shortened": "as §1", "values": [
      {"smiles": "CNC(=O)C(Cn1cc(C)c(-c2cccc(F)c2)n1)=NOC", "note": "[Compound 43]", "Herbicidal activity EC": "5 (herbicidal effect of not less than 90%, or phytotoxicity of 90% or more)"},
      {"smiles": "CNC(=O)C(Cn1cc(C)c(-c2ccc(F)cc2)n1)=NOC", "note": "[Compound 44]", "Herbicidal activity EC": "5 (herbicidal effect of not less than 90%, or phytotoxicity of 90% or more)"}
    ]},
    {"tested_on": "Monochoria vaginalis", "test": "Test Example 3 paddy field treatment", "type": "in vivo", "conditions": "paddy field treatment, wettable powder, active ingredient 1 kg per hectare, 21st day after the dropping, index 0-5", "procedure,_shortened": "as §1", "values": [
      {"smiles": "CNC(=O)C(Cn1cc(C)c(-c2cccc(F)c2)n1)=NOC", "note": "[Compound 43]", "Herbicidal activity MV": "5 (herbicidal effect of not less than 90%, or phytotoxicity of 90% or more)"},
      {"smiles": "CNC(=O)C(Cn1cc(C)c(-c2ccc(F)cc2)n1)=NOC", "note": "[Compound 44]", "Herbicidal activity MV": "5 (herbicidal effect of not less than 90%, or phytotoxicity of 90% or more)"}
    ]},
    {"tested_on": "soybean (Glycine max)", "test": "Test Example 2 upland soil treatment, crop phytotoxicity", "type": "in vivo", "conditions": "Table 5, upland soil treatment, index 0-5", "procedure,_shortened": "(§2)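 Visual 0–5 grading of herbicidal effect or phytotoxicity, made 21 days after a single pre-emergence soil-surface application at 1 kg a.i./ha.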", "values": [
      {"smiles": "CNC(=O)C(Cn1cc(C)c(-c2cccc(F)c2)n1)=NOC", "note": "[Compound 43]", "Herbicidal activity (phytotoxicity) GM: Soybean (Glycine max)": "1 (herbicidal effect of not less than 10% and less than 30%, or phytotoxicity of 10% or more and less than 30%)"},
      {"smiles": "CNC(=O)C(Cn1cc(C)c(-c2ccc(F)cc2)n1)=NOC", "note": "[Compound 44]", "Herbicidal activity (phytotoxicity) GM: Soybean (Glycine max)": "0 (herbicidal effect of not less than 0% and less than 10%, or phytotoxicity of 0% or more and less than 10%)"}
    ]},
    {"tested_on": "wheat (Triticum aestivum)", "test": "Test Example 2 upland soil treatment, crop phytotoxicity", "type": "in vivo", "conditions": "Table 5, upland soil treatment, index 0-5", "procedure,_shortened": "as §2", "values": [
      {"smiles": "CNC(=O)C(Cn1cc(C)c(-c2cccc(F)c2)n1)=NOC", "note": "[Compound 43]", "Herbicidal activity (phytotoxicity) TA: Wheat (Triticum aestivum)": "0 (herbicidal effect of not less than 0% and less than 10%, or phytotoxicity of 0% or more and less than 10%)"},
      {"smiles": "CNC(=O)C(Cn1cc(C)c(-c2ccc(F)cc2)n1)=NOC", "note": "[Compound 44]", "Herbicidal activity (phytotoxicity) TA: Wheat (Triticum aestivum)": "0 (herbicidal effect of not less than 0% and less than 10%, or phytotoxicity of 0% or more and less than 10%)"}
    ]},
    {"tested_on": "Rice (Oryza sativa)", "test": "Test Example 3 paddy field treatment, crop phytotoxicity", "type": "in vivo", "conditions": "paddy field treatment, transplanted rice Koshihikari, wettable powder, active ingredient 1 kg per hectare, 21st day after the dropping, index 0-5", "procedure,_shortened": "as §1", "values": [
      {"smiles": "CNC(=O)C(Cn1cc(C)c(-c2cccc(F)c2)n1)=NOC", "note": "[Compound 43]", "Herbicidal activity OS (phytotoxicity to rice)": "1 (herbicidal effect of not less than 10% and less than 30%, or phytotoxicity of 10% or more and less than 30%)"},
      {"smiles": "CNC(=O)C(Cn1cc(C)c(-c2ccc(F)cc2)n1)=NOC", "note": "[Compound 44]", "Herbicidal activity OS (phytotoxicity to rice)": "1 (herbicidal effect of not less than 10% and less than 30%, or phytotoxicity of 10% or more and less than 30%)"}
    ]},
    {"tested_on": "Chenopodium album", "test": "Test Example 2 upland soil treatment", "type": "in vivo", "conditions": "Table 5, upland soil treatment, index 0-5", "procedure,_shortened": "as §2", "values": [
      {"smiles": "CNC(=O)C(Cn1cc(C)c(-c2cccc(F)c2)n1)=NOC", "note": "[Compound 43]", "Herbicidal activity CA: Chenopodium album": "5 (herbicidal effect of not less than 90%, or phytotoxicity of 90% or more)"},
      {"smiles": "CNC(=O)C(Cn1cc(C)c(-c2ccc(F)cc2)n1)=NOC", "note": "[Compound 44]", "Herbicidal activity CA: Chenopodium album": "5 (herbicidal effect of not less than 90%, or phytotoxicity of 90% or more)"}
    ]},
    {"tested_on": "Setaria viridis", "test": "Test Example 2 upland soil treatment", "type": "in vivo", "conditions": "Table 5, upland soil treatment, index 0-5", "procedure,_shortened": "as §2", "values": [
      {"smiles": "CNC(=O)C(Cn1cc(C)c(-c2cccc(F)c2)n1)=NOC", "note": "[Compound 43]", "Herbicidal activity SV: Setaria viridis": "5 (herbicidal effect of not less than 90%, or phytotoxicity of 90% or more)"},
      {"smiles": "CNC(=O)C(Cn1cc(C)c(-c2ccc(F)cc2)n1)=NOC", "note": "[Compound 44]", "Herbicidal activity SV: Setaria viridis": "5 (herbicidal effect of not less than 90%, or phytotoxicity of 90% or more)"}
    ]},
    {"tested_on": "Stellaria media", "test": "Test Example 2 upland soil treatment", "type": "in vivo", "conditions": "Table 5, upland soil treatment, index 0-5", "procedure,_shortened": "as §2", "values": [
      {"smiles": "CNC(=O)C(Cn1cc(C)c(-c2cccc(F)c2)n1)=NOC", "note": "[Compound 43]", "Herbicidal activity SM: Stellaria media": "5 (herbicidal effect of not less than 90%, or phytotoxicity of 90% or more)"},
      {"smiles": "CNC(=O)C(Cn1cc(C)c(-c2ccc(F)cc2)n1)=NOC", "note": "[Compound 44]", "Herbicidal activity SM: Stellaria media": "5 (herbicidal effect of not less than 90%, or phytotoxicity of 90% or more)"}
    ]},
    {"tested_on": "Digitaria adscendens", "test": "Test Example 2 upland soil treatment", "type": "in vivo", "conditions": "Table 5, upland soil treatment, index 0-5", "procedure,_shortened": "as §2", "values": [
      {"smiles": "CNC(=O)C(Cn1cc(C)c(-c2cccc(F)c2)n1)=NOC", "note": "[Compound 43]", "Herbicidal activity DA: Digitaria adscendens": "5 (herbicidal effect of not less than 90%, or phytotoxicity of 90% or more)"},
      {"smiles": "CNC(=O)C(Cn1cc(C)c(-c2ccc(F)cc2)n1)=NOC", "note": "[Compound 44]", "Herbicidal activity DA: Digitaria adscendens": "5 (herbicidal effect of not less than 90%, or phytotoxicity of 90% or more)"}
    ]},
    {"tested_on": "soybean (Glycine max)", "test": "Test Example 1 upland field foliage treatment, crop phytotoxicity", "type": "in vivo", "conditions": "Table 4, upland field foliage treatment, index 0-5", "procedure,_shortened": "(§3)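 Scores are visual 0–5 ratings of herbicidal effect or crop injury (0: under 10%; 5: 90% or more) taken 21 days after treatment. Plants grew from seed in upland soil for 14 days, then foliage received the compound as a water-diluted wettable powder at 1 kg/ha active ingredient.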", "values": [
      {"smiles": "CNC(=O)C(Cn1cc(C)c(-c2cccc(F)c2)n1)=NOC", "note": "[Compound 43]", "Herbicidal activity (phytotoxicity) GM: Soybean (Glycine max)": "0 (herbicidal effect of not less than 0% and less than 10%, or phytotoxicity of 0% or more and less than 10%)"},
      {"smiles": "CNC(=O)C(Cn1cc(C)c(-c2ccc(F)cc2)n1)=NOC", "note": "[Compound 44]", "Herbicidal activity (phytotoxicity) GM: Soybean (Glycine max)": "0 (herbicidal effect of not less than 0% and less than 10%, or phytotoxicity of 0% or more and less than 10%)"}
    ]},
    {"tested_on": "wheat (Triticum aestivum)", "test": "Test Example 1 upland field foliage treatment, crop phytotoxicity", "type": "in vivo", "conditions": "Table 4, upland field foliage treatment, index 0-5", "procedure,_shortened": "as §3", "values": [
      {"smiles": "CNC(=O)C(Cn1cc(C)c(-c2cccc(F)c2)n1)=NOC", "note": "[Compound 43]", "Herbicidal activity (phytotoxicity) TA: Wheat (Triticum aestivum)": "0 (herbicidal effect of not less than 0% and less than 10%, or phytotoxicity of 0% or more and less than 10%)"},
      {"smiles": "CNC(=O)C(Cn1cc(C)c(-c2ccc(F)cc2)n1)=NOC", "note": "[Compound 44]", "Herbicidal activity (phytotoxicity) TA: Wheat (Triticum aestivum)": "0 (herbicidal effect of not less than 0% and less than 10%, or phytotoxicity of 0% or more and less than 10%)"}
    ]},
    {"tested_on": "Chenopodium album", "test": "Test Example 1 upland field foliage treatment", "type": "in vivo", "conditions": "Table 4, upland field foliage treatment, index 0-5", "procedure,_shortened": "as §3", "values": [
      {"smiles": "CNC(=O)C(Cn1cc(C)c(-c2cccc(F)c2)n1)=NOC", "note": "[Compound 43]", "Herbicidal activity CA: Chenopodium album": "5 (herbicidal effect of not less than 90%, or phytotoxicity of 90% or more)"},
      {"smiles": "CNC(=O)C(Cn1cc(C)c(-c2ccc(F)cc2)n1)=NOC", "note": "[Compound 44]", "Herbicidal activity CA: Chenopodium album": "5 (herbicidal effect of not less than 90%, or phytotoxicity of 90% or more)"}
    ]},
    {"tested_on": "Setaria viridis", "test": "Test Example 1 upland field foliage treatment", "type": "in vivo", "conditions": "Table 4, upland field foliage treatment, index 0-5", "procedure,_shortened": "as §3", "values": [
      {"smiles": "CNC(=O)C(Cn1cc(C)c(-c2cccc(F)c2)n1)=NOC", "note": "[Compound 43]", "Herbicidal activity SV: Setaria viridis": "5 (herbicidal effect of not less than 90%, or phytotoxicity of 90% or more)"},
      {"smiles": "CNC(=O)C(Cn1cc(C)c(-c2ccc(F)cc2)n1)=NOC", "note": "[Compound 44]", "Herbicidal activity SV: Setaria viridis": "5 (herbicidal effect of not less than 90%, or phytotoxicity of 90% or more)"}
    ]},
    {"tested_on": "Stellaria media", "test": "Test Example 1 upland field foliage treatment", "type": "in vivo", "conditions": "Table 4, upland field foliage treatment, index 0-5", "procedure,_shortened": "as §3", "values": [
      {"smiles": "CNC(=O)C(Cn1cc(C)c(-c2cccc(F)c2)n1)=NOC", "note": "[Compound 43]", "Herbicidal activity SM: Stellaria media": "5 (herbicidal effect of not less than 90%, or phytotoxicity of 90% or more)"},
      {"smiles": "CNC(=O)C(Cn1cc(C)c(-c2ccc(F)cc2)n1)=NOC", "note": "[Compound 44]", "Herbicidal activity SM: Stellaria media": "5 (herbicidal effect of not less than 90%, or phytotoxicity of 90% or more)"}
    ]},
    {"tested_on": "Digitaria adscendens", "test": "Test Example 1 upland field foliage treatment", "type": "in vivo", "conditions": "Table 4, upland field foliage treatment, index 0-5", "procedure,_shortened": "as §3", "values": [
      {"smiles": "CNC(=O)C(Cn1cc(C)c(-c2cccc(F)c2)n1)=NOC", "note": "[Compound 43]", "Herbicidal activity DA: Digitaria adscendens": "5 (herbicidal effect of not less than 90%, or phytotoxicity of 90% or more)"},
      {"smiles": "CNC(=O)C(Cn1cc(C)c(-c2ccc(F)cc2)n1)=NOC", "note": "[Compound 44]", "Herbicidal activity DA: Digitaria adscendens": "5 (herbicidal effect of not less than 90%, or phytotoxicity of 90% or more)"}
    ]}
  ]
}
